Earlier results on three compounds are cited in US6465194B2, “Monoclonal antibodies to 4,4′-dinitrocarbanilide and a method for analyzing for the drug nicarbazin” (The United States of America as represented by the …, priority 1999, dated 2002).

The structures appear in SMILES notation.

For data set [1] the following is noted: chickens; Porter and Gilfilan, 1955.
A further data set concerns Eimeria tenella. The following applies: Cuckler et al., 1955.

In the case of `O=C(Nc1ccc([N+](=O)[O-])cc1)Nc1ccc([N+](=O)[O-])cc1` [DNC, 4,4′-dinitrocarbanilide], in data set [1], the excretion rate entry is “more slowly than HDP”.
As to `Cc1cc(C)nc(O)n1.O=C(Nc1ccc([N+](=O)[O-])cc1)Nc1ccc([N+](=O)[O-])cc1` [DNC-HDP], in the data set with Eimeria tenella (complex versus DNC alone), the “potency in the control of Eimeria tenella relative to DNC by itself” value was “ten”.
Regarding `Cc1cc(C)nc(O)n1` [HDP, 2-hydroxy-4,6-dimethylpyrimidine], the anticoccidial activity entry with Eimeria tenella (used alone) was “no anticoccidial activity”.
